The target in test [1] is T1, A. sobria ProAP (Aeromonas sobria, UniProt P46547). As to the kind of experiment: Proline removal from peptide 8 by ProAP before N-terminal labeling (UPLC-MS). In kind it is biochemical. The protocol:
Peptide (100 μM) was incubated with ProAP (4 μM) in 20 mM Tris, pH 8.5, 100 mM NaCl for 1 h at 37° C. One half of the reaction (40 μL) was set aside for later UPLC-MS analysis, while the other half was mixed with 40 μL of FAM-CO-SR (400 μM), sodium 2-mercaptoethanesulfonate (2 mM), and TCEP (2.5 mM) in PBS (H 7.5). The mixture was incubated at room temperature for 5 h and analyzed by UPLC-MS.
We first tested the feasibility of generating an N-terminal cysteine by ProAP and specific N-terminal conjugation with a peptide as substrate. […] The reaction mixture was next treated with an excess of fluorescein 2-mercaptoethanesulfonate thioester (FAM-CO-SR; 4 equivalents) in the presence of 2-mercaptoethanesulfonate (2-MES) and TCEP in a phosphate buffer (pH 7.5).

The target of test [2] is T1, A. sobria ProAP. Description: ProAP activity assay (kinetic constants of A. sobria ProAP against selected peptide substrates). In kind it is biochemical. The following applies: role: substrate; for decrease in catalytic activity on substitution of Ala for Gly at P2′: peptide 6 compared with 9, peptide 10 compared with 8; for kcat/KM: PBS pH 7.4, 2 mM DTT, 0-500 μM peptide, 0.5-25 nM ProAP, mean ± SD of three independent sets of experiments; for change in catalytic activity on replacement of His at P3′ with Gly or Ser: peptides 1 and 9 or peptides 3 and 6 compared. The protocol:
A typical assay reaction (total volume of 100 μL) contained PBS (10 mM Na2HPO4, 1.8 mM KH2PO4, 137 mM NaCl, 2.7 mM KCl, 2 mM DTT pH 7.4) and 0-500 μM peptide substrate. The reaction was initiated by the addition of ProAP (final concentration of 0.5-25 nM) and quenched after 5-30 min by the addition of 100 μL of 10% TFA. The reaction mixture was centrifuged at 15,000 rpm in a microcentrifuge for 5 min, and the clear supernatant was analyzed on a Waters Acquity UPLC-MS equipped with a BEH C18 column (1.7 μm, 2.1 mm I.D., 100 mm length). The column was eluted with a linear gradient of acetonitrile (0-25% over 8 min) in water containing 0.05% TFA. The percentage of substrate-to-product conversion was determined by comparing the peak areas of the remaining substrate and the reaction product (monitored at 280 nm) and kept at ≤20%. The initial rates were calculated from the conversion percentages and plotted versus [S]. Data fitting against the Michaelis-Menten equation V=Vmax[S]/(KM+[S]) or the simplified equation V=kcat[E][S]/KM (when KM>>[S]) gave the kinetic constants kcat, KM, and/or kcat/KM.
To confirm the screening results, we individually synthesized a panel of peptides and determined their kinetic properties toward A. sobria ProAP (Table 1). Peptides 1-6 are representative (preferred) sequences selected from the library, while peptide 7 is the consensus sequence based on the screening results. Peptide 8 is a variant of peptide 7, containing a proline (instead of a lysine) at the P5′ position. We anticipated that a proline residue at this position would improve the proteolytic stability of the peptide. Peptide 9 is a variant of peptide 6 (substitution of Gly for Ala at the P2′ position) and was designed to test the importance of a Gly residue at the P2′ position. Peptide 10 is also a variant of peptide 6 but contains a Pro at position P5′ (in place of Lys) to impart proteolytic stability. Peptide 11 is derived from a colorless bead during library screening (Table C) and expected to be a poor substrate of ProAP (“negative” control). All peptides contained a Tyr at the P6′ position, to facilitate concentration measurement as well as monitoring the enzymatic reactions by UPLC (at 280 nm).

No end group written: not given here.

T1 sequence (P46547 whole entry, added parts left off): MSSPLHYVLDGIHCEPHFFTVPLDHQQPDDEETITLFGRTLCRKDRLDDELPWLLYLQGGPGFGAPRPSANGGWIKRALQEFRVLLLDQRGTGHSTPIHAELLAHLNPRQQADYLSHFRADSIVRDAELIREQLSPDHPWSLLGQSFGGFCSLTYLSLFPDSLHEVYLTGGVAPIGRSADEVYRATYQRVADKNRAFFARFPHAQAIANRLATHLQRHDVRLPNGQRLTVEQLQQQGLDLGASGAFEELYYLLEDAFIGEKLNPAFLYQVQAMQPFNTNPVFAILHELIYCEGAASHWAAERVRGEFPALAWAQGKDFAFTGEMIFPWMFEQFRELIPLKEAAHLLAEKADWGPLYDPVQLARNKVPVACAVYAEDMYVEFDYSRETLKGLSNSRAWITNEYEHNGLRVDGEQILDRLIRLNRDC

With `O=C(O)CCP(CCC(=O)O)CCC(=O)O` [TCEP, tris(carboxyethyl)phosphine, reference compound], the “inhibition of A. sobria ProAP activity” value at A. sobria ProAP [1] (role: inhibitor) was “strongly inhibits”.
On to PCAHKAY-NH2 [Peptide 6, PCAHKAY], for which the “decrease in catalytic activity on substitution of Ala for Gly at P2′” value at A. sobria ProAP [2] is 2- to 3 fold.
Turning to PCAHKPY-NH2 [Peptide 10, PCAHKPY], on A. sobria ProAP [2], the kcat/KM is on record as 2.8 ± 0.8 ×10^5 M^−1 s^−1 and the “decrease in catalytic activity on substitution of Ala for Gly at P2′” value is 2- to 3 fold.
As to PCASKAY-NH2 [Peptide 3, PCASKAY], on A. sobria ProAP [2], the kcat/KM is on record as 3.8 ± 0.4 ×10^5 M^−1 s^−1 and the “change in catalytic activity on replacement of His at P3′ with Gly or Ser” value is given as not above 1.3 fold.
With PCEFTRY-NH2 [Peptide 5, PCEFTRY], the kcat/KM on A. sobria ProAP [2] is on record as 3.2 ± 0.9 ×10^5 M^−1 s^−1.
Consider PCGGKAY-NH2 [Peptide 1, PCGGKAY], for which, at A. sobria ProAP [2], the kcat/KM was 7.0 ± 1.2 ×10^5 M^−1 s^−1 and the “change in catalytic activity on replacement of His at P3′ with Gly or Ser” value is reported as not above 1.3 fold.
Regarding PCGHKAY-NH2 [Peptide 9, PCGHKAY], at A. sobria ProAP [2], the kcat/KM is 7.2 ± 2.6 ×10^5 M^−1 s^−1.
For the compound PCGHKKY-NH2 [Peptide 7, PCGHKKY], the kcat/KM on A. sobria ProAP [2] is listed as 8.2 ± 0.7 ×10^5 M^−1 s^−1.
As to PCGHKPY-NH2 [Peptide 8, PCGHKPY], the “disappearance of peptide on treatment with ProAP” value at A. sobria ProAP [1] (role: substrate, 100 μM peptide, 4 μM ProAP, 60 min) is listed as “complete disappearance”. The kcat/KM on A. sobria ProAP [2] was 8.3 ± 3.2 ×10^5 M^−1 s^−1.
In the case of PCGSSKY-NH2 [Peptide 2, PCGSSKY], the kcat/KM at A. sobria ProAP [2] is reported as 5.8 ± 1.0 ×10^5 M^−1 s^−1.
For the compound PCHDETY-NH2 [Peptide 11, PCHDETY], the kcat/KM on A. sobria ProAP [2] is recorded as 0.038 ± 0.010 ×10^5 M^−1 s^−1. Further, the “less active than peptides 1-10” value on A. sobria ProAP [2] (negative control compared with peptides 1-10) was ~ 2 orders of magnitude.
Take PCSHKGY-NH2 [Peptide 4, PCSHKGY]: the kcat/KM on A. sobria ProAP [2] is 3.2 ± 0.1 ×10^5 M^−1 s^−1.

The values above are taken from patent publication US20260337656A1, “METHODS OF SYNTHESIZING PEPTIDES WITH FREE N-TERMINAL CYSTEINE AND PRODUCTS THEREOF” (OHIO STATE INNOVATION FOUNDATION, priority 2022, published 2026).
